ChEMBL document CHEMBL4507315 (2021)

Columns and labels:
[1] = biological target: Ribosomal protein S6 kinase alpha-2 (Homo sapiens) (UniProt Q15349); conditions: Compound concentration 100.0 nM
[2] = biological target: Serine/threonine-protein kinase NLK (Homo sapiens) (UniProt Q9UBE8); conditions: Compound concentration 100.0 nM
[3] = biological target: Phosphatidylinositol 4,5-bisphosphate 3-kinase catalytic subunit delta isoform (Homo sapiens) (UniProt O00329); conditions: Compound concentration 100.0 nM
[4] = biological target: Cyclin-dependent kinase 9 (Homo sapiens) (UniProt P50750); conditions: Compound concentration 100.0 nM
[5] = biological target: Serine/threonine-protein kinase BRSK2 (Homo sapiens) (UniProt Q8IWQ3); conditions: Compound concentration 100.0 nM
[6] = biological target: SRSF protein kinase 3 (Homo sapiens) (UniProt Q9UPE1); conditions: Compound concentration 100.0 nM
[7] = biological target: NUAK family SNF1-like kinase 2 (Homo sapiens) (UniProt Q9H093); conditions: Compound concentration 100.0 nM
[8] = biological target: Tyrosine-protein kinase TXK (Homo sapiens) (UniProt P42681); conditions: Compound concentration 100.0 nM
[9] = biological target: G protein-coupled receptor kinase 3 (Homo sapiens) (UniProt P35626); conditions: Compound concentration 100.0 nM
[10] = biological target: Serine/threonine-protein kinase pim-2 (Homo sapiens) (UniProt Q9P1W9); conditions: Compound concentration 100.0 nM
[11] = system: Epidermal growth factor receptor (Homo sapiens), P00533 [UNDEFINED MUTATION]; conditions: Compound concentration 100.0 nM
[12] = biological target: Tyrosine-protein kinase receptor UFO (Homo sapiens) (UniProt P30530); conditions: Compound concentration 100.0 nM
[13] = biological target: Serine/threonine-protein kinase DCLK2 (Homo sapiens) (UniProt Q8N568); conditions: Compound concentration 100.0 nM
[14] = biological target: 3-phosphoinositide-dependent protein kinase 1 (Homo sapiens) (UniProt O15530); conditions: Compound concentration 100.0 nM
[15] = biological target: Homeodomain-interacting protein kinase 2 (Homo sapiens) (UniProt Q9H2X6); conditions: Compound concentration 100.0 nM
[16] = biological target: Mitogen-activated protein kinase kinase kinase 12 (Homo sapiens) (UniProt Q12852); conditions: Compound concentration 100.0 nM
[17] = biological target: Casein kinase I isoform delta (Homo sapiens) (UniProt P48730); conditions: Compound concentration 100.0 nM
[18] = system: Epidermal growth factor receptor (Homo sapiens), P00533 [L861Q]; conditions: Compound concentration 100.0 nM
[19] = system: Proto-oncogene tyrosine-protein kinase receptor Ret (Homo sapiens), P07949 [M918T]; conditions: Compound concentration 100.0 nM
[20] = biological target: 5-hydroxytryptamine receptor 2B (Homo sapiens) (UniProt P41595); conditions: Compound concentration 10.0 uM
[21] = biological target: Serine/threonine-protein kinase SIK1 (Homo sapiens) (UniProt P57059); conditions: Compound concentration 100.0 nM
[22] = biological target: Serine/threonine-protein kinase Nek9 (Homo sapiens) (UniProt Q8TD19); conditions: Compound concentration 100.0 nM
[23] = biological target: Delta-type opioid receptor (Homo sapiens) (UniProt P41143); conditions: Compound concentration 10.0 uM
[24] = biological target: Phosphatidylinositol 4-phosphate 5-kinase type-1 alpha (Homo sapiens) (UniProt Q99755); conditions: Compound concentration 100.0 nM
[25] = biological target: Activin receptor type-1 (Homo sapiens) (UniProt Q04771); conditions: Compound concentration 100.0 nM
[26] = system: Tyrosine-protein kinase ABL1 (Homo sapiens), P00519 [T315I]; conditions: Compound concentration 100.0 nM
[27] = system: Receptor-type tyrosine-protein kinase FLT3 (Homo sapiens), P36888 [K663Q]; conditions: Compound concentration 100.0 nM
[28] = biological target: Mitogen-activated protein kinase kinase kinase 15 (Homo sapiens) (UniProt Q6ZN16); conditions: Compound concentration 100.0 nM
[29] = biological target: Cyclin-dependent kinase 4 (Homo sapiens) (UniProt P11802); conditions: Compound concentration 100.0 nM
[30] = biological target: Macrophage-stimulating protein receptor (Homo sapiens) (UniProt Q04912); conditions: Compound concentration 100.0 nM
[31] = biological target: Cyclin-dependent kinase 13 (Homo sapiens) (UniProt Q14004); conditions: Compound concentration 100.0 nM
[32] = biological target: Homeodomain-interacting protein kinase 3 (Homo sapiens) (UniProt Q9H422); conditions: Compound concentration 100.0 nM
[33] = biological target: Rhodopsin kinase GRK1 (Homo sapiens) (UniProt Q15835); conditions: Compound concentration 100.0 nM
[34] = biological target: Dual specificity mitogen-activated protein kinase kinase 6 (Homo sapiens) (UniProt P52564); conditions: Compound concentration 100.0 nM
[35] = biological target: Maternal embryonic leucine zipper kinase (Homo sapiens) (UniProt Q14680); conditions: Compound concentration 100.0 nM
[36] = biological target: Sodium-dependent noradrenaline transporter (Homo sapiens) (UniProt P23975); conditions: Compound concentration 10.0 uM
[37] = biological target: Phosphatidylinositol 4,5-bisphosphate 3-kinase catalytic subunit beta isoform (Homo sapiens) (UniProt P42338); conditions: Compound concentration 100.0 nM
[38] = biological target: Mast/stem cell growth factor receptor Kit (Homo sapiens) (UniProt P10721); conditions: Compound concentration 100.0 nM
[39] = biological target: Mitogen-activated protein kinase kinase kinase 20 (Homo sapiens, UniProt Q9NYL2); assay: NanoBRET (MAP3K20)
[40] = biological target: Vascular endothelial growth factor receptor 2 (Homo sapiens) (UniProt P35968); conditions: Compound concentration 100.0 nM
[41] = biological target: Proto-oncogene tyrosine-protein kinase Src (Homo sapiens) (UniProt P12931); conditions: Compound concentration 100.0 nM
[42] = biological target: Histamine H3 receptor (Homo sapiens) (UniProt Q9Y5N1); conditions: Compound concentration 10.0 uM
[43] = biological target: Alpha-2A adrenergic receptor (Homo sapiens) (UniProt P08913); conditions: Compound concentration 10.0 uM
[44] = biological target: Muscarinic acetylcholine receptor M3 (Homo sapiens) (UniProt P20309); conditions: Compound concentration 10.0 uM
[45] = biological target: Serine/threonine-protein kinase WNK3 (Homo sapiens) (UniProt Q9BYP7); conditions: Compound concentration 100.0 nM

Chain of Serine/threonine-protein kinase DCLK2 (Homo sapiens) (Q8N568 whole entry): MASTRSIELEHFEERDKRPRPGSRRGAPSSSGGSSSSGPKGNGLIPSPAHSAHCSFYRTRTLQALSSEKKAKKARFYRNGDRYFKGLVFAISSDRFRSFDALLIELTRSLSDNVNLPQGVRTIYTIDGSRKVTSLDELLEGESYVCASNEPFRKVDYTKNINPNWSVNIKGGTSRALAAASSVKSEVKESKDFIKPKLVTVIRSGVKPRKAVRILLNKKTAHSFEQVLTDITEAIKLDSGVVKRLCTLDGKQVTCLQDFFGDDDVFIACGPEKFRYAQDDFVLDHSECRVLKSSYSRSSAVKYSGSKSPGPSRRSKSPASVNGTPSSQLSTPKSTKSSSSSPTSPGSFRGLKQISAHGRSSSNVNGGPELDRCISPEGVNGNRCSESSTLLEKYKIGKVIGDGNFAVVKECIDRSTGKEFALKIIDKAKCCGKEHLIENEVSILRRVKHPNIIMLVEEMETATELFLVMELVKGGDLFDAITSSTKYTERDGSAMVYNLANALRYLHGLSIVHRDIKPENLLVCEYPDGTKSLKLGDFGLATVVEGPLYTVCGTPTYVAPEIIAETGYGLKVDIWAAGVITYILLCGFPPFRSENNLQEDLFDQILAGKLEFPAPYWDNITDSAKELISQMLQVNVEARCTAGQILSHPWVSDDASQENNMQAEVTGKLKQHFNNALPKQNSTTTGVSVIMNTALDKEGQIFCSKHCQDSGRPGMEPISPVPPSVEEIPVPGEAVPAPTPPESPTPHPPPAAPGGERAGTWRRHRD
Chain of Cyclin-dependent kinase 13 (Homo sapiens) (Q14004 whole entry, looked up): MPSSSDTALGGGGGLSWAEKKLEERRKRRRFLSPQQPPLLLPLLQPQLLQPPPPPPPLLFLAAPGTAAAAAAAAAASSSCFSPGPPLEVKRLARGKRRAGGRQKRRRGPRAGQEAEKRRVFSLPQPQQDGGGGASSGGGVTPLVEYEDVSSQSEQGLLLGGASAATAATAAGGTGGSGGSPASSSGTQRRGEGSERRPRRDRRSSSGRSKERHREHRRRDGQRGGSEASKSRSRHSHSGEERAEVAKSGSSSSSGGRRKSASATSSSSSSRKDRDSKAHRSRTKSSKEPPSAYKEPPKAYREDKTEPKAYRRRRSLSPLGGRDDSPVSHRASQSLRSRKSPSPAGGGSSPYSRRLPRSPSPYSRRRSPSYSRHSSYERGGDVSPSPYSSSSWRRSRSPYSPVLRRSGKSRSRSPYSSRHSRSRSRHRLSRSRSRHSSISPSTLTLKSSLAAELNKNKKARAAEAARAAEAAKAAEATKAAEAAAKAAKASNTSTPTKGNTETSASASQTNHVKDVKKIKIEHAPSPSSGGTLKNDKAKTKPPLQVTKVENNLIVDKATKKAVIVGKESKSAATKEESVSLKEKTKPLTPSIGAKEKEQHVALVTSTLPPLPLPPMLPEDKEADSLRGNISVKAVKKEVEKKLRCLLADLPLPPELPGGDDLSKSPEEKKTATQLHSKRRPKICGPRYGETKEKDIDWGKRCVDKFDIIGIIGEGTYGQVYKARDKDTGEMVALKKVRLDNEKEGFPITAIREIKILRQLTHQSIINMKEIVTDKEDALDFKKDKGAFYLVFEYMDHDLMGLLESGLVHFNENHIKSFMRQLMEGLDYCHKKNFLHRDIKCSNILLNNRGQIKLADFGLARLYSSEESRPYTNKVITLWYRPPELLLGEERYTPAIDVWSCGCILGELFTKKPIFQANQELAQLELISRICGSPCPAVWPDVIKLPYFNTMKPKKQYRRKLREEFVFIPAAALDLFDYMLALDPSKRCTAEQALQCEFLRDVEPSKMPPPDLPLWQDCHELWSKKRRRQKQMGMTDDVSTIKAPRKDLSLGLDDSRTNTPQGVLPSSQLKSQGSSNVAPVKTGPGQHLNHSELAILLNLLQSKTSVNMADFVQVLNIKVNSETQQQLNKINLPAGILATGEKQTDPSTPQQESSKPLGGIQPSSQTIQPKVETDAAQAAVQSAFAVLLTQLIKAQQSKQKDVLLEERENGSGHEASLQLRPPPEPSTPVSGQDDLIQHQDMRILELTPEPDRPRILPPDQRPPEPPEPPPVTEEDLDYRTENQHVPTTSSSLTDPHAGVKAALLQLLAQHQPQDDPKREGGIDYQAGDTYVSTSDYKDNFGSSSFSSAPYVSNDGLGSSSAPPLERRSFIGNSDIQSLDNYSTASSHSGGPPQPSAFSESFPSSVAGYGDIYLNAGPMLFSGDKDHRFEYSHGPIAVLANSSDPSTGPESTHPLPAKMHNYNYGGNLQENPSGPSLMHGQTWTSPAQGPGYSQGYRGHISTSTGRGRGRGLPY
Chain of Phosphatidylinositol 4,5-bisphosphate 3-kinase catalytic subunit delta isoform (Homo sapiens) (O00329 whole entry, canonical isoform): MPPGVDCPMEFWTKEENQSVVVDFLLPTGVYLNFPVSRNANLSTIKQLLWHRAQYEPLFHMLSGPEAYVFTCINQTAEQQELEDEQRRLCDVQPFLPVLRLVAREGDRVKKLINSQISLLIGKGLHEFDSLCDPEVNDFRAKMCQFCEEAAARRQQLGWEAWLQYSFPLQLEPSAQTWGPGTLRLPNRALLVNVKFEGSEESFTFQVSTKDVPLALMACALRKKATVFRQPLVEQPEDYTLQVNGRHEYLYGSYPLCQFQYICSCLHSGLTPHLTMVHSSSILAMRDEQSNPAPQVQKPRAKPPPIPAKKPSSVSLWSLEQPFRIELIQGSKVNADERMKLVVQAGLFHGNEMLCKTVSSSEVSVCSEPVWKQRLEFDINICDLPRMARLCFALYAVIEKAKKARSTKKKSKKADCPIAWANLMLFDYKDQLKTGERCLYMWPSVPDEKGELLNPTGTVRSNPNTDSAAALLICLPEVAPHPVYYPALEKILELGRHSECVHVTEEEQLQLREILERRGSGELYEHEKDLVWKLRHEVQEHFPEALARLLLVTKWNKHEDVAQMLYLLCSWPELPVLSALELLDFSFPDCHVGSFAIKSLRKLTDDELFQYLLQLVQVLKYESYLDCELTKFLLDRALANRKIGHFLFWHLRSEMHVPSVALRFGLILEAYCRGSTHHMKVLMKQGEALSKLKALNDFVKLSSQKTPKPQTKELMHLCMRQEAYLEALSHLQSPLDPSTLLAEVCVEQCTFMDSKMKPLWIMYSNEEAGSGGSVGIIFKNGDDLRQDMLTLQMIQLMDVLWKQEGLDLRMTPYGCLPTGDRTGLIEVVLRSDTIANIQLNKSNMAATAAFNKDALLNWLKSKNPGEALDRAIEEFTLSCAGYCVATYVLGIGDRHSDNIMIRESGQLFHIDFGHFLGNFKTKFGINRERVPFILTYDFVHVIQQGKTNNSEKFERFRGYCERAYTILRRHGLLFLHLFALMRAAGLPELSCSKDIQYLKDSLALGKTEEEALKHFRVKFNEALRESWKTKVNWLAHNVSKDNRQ
Chain of Delta-type opioid receptor (Homo sapiens) (P41143 whole entry): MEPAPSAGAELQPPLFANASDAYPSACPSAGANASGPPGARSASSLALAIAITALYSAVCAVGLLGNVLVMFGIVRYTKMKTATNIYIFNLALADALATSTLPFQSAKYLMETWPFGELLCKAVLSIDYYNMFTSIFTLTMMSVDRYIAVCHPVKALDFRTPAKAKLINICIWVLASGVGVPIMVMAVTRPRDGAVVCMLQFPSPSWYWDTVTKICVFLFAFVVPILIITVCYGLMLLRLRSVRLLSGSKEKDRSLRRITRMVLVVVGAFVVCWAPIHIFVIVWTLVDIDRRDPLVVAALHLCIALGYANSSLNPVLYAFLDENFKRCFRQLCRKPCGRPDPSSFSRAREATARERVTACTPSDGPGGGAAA
Chain of Cyclin-dependent kinase 4 (Homo sapiens) (P11802 whole entry): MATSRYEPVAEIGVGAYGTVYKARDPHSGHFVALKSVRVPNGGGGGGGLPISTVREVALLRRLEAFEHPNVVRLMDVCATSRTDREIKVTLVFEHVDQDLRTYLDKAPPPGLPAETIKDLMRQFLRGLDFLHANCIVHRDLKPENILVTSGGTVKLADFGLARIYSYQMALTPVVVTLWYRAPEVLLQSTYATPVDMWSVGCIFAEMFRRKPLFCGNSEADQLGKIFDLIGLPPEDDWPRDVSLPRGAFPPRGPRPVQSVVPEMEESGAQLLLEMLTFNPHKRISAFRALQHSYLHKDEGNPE
Chain of Mast/stem cell growth factor receptor Kit (Homo sapiens) (P10721 whole entry): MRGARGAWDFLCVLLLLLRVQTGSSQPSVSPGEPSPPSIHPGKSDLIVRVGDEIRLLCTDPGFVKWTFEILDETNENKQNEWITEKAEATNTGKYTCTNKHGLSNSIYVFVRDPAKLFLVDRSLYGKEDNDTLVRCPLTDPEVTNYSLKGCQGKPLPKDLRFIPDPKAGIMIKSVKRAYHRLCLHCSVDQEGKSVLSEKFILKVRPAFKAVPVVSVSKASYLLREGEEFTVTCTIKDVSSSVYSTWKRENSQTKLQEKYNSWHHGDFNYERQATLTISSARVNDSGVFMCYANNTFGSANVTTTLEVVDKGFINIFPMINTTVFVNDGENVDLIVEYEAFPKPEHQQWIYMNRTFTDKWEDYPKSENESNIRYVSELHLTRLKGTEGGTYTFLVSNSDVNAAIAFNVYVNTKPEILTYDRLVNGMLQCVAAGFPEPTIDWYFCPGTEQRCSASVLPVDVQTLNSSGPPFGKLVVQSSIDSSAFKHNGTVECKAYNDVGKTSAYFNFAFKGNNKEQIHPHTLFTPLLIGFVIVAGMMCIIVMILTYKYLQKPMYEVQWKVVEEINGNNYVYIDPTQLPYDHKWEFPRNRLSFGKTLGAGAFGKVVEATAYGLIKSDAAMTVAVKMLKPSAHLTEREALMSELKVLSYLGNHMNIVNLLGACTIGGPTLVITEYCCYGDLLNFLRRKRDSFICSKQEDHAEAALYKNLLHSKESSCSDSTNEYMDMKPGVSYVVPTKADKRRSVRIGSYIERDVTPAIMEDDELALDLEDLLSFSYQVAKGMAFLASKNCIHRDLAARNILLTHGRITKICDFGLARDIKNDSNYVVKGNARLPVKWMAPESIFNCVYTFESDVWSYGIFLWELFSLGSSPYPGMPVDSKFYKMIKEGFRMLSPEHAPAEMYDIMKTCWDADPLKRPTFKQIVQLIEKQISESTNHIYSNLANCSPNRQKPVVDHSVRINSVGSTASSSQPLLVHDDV

Nc1c(C(=O)NCc2ccc(C(=O)NCCCC3CCCCC3)cc2)cnn1-c1ccccc1 [SR-318]
0.91 µM (not active): IC50 [39]
inactive: residual activity [1] 90% | residual activity [2] 96% | residual activity [3] 94% | residual activity [4] 100% | residual activity [5] 79% | residual activity [6] 100% | residual activity [7] 100% | residual activity [8] 83% | residual activity [9] 100% | residual activity [10] 100% | residual activity [11] 100% | residual activity [12] 87% | residual activity [13] 100% | residual activity [14] 100% | residual activity [15] 100% | residual activity [16] 100% | residual activity [17] 100% | residual activity [18] 90% | residual activity [19] 100% | inhibition [20] 19.9% | residual activity [21] 100% | residual activity [22] 100% | inhibition [23] 24.1% | residual activity [24] 100% | residual activity [25] 100% | residual activity [26] 100% | residual activity [27] 100% | residual activity [28] 100% | residual activity [29] 100% | residual activity [30] 100% | residual activity [31] 79% | residual activity [32] 100% | residual activity [33] 100% | residual activity [34] 79% | residual activity [35] 92% | inhibition [36] 13.5% | residual activity [37] 100% | residual activity [38] 100% | residual activity [40] 100% | residual activity [41] 100% | inhibition [42] -2.98% | inhibition [43] 4.08% | inhibition [44] 25.2% | residual activity [45] 92%

O=C(NCCCC1CCCCC1)c1ccc(CNC(=O)c2cnn(-c3ccccc3)c2C(F)(F)F)cc1 [SR-321]
5.8 µM (not active): IC50 [39]
inactive: residual activity [1] 96% | residual activity [2] 100% | residual activity [3] 100% | residual activity [4] 100% | residual activity [5] 100% | residual activity [6] 100% | residual activity [7] 100% | residual activity [8] 100% | residual activity [9] 100% | residual activity [10] 100% | residual activity [11] 99% | residual activity [12] 95% | residual activity [13] 100% | residual activity [14] 100% | residual activity [15] 100% | residual activity [16] 100% | residual activity [17] 100% | residual activity [18] 100% | residual activity [19] 100% | inhibition [20] 3.69% | residual activity [21] 91% | residual activity [22] 100% | inhibition [23] 12.9% | residual activity [24] 100% | residual activity [25] 100% | residual activity [26] 100% | residual activity [27] 100% | residual activity [28] 84% | residual activity [29] 100% | residual activity [30] 100% | residual activity [31] 100% | residual activity [32] 88% | residual activity [33] 94% | residual activity [34] 79% | residual activity [35] 80% | inhibition [36] -1.78% | residual activity [37] 100% | residual activity [38] 100% | residual activity [40] 97% | residual activity [41] 100% | inhibition [42] 9.12% | inhibition [43] -2.46% | inhibition [44] 19.5% | residual activity [45] 100%
